Values quoted from earlier work, collected in US12551521B2, “Compositions including pine bark extract, berryfruit extract and a source of l-theanine and uses thereof” (AREPA IP LIMITED, priority 2017, dated 2026).

Details: in vivo

blood-brain barrier crossing: known to cross the blood-brain barrier
SMILES: CCNC(=O)CC[C@H](N)C(=O)O [L-theanine, γ-glutamylethylamide]
